One molecule from patent US11241455B2, “Methods of treating disease by metabolic control of T-cell differentiation” (The J. David Gladstone Institutes, a testamentary trust …, priority 2016, dated 2022) can be followed below.

What all share (assay type): cell-based, mouse
Test [1] deals with FOXP3, Il17, Il17f, and Rorc mRNA in TH17 cells. The test is described as follows: mRNA expression analysis by qRT-PCR in TH17 cells. As to conditions: normalized to β-actin. The procedure:
(§1) At the end of differentiation (day 6), T cells were re-stimulated with plate-coated anti-CD3 and anti-CD28 for 5 hours in the absence of any small-molecule compounds or metabolites. Quantitative reverse transcriptase polymerase chain reaction (qRT-PCR) was performed to evaluate mRNA expression of FOXP3, Il17, Il17f, and Rorc. For differentiating TH17 or iTreg cells, cells were collected on day 2.5 or at the indicated time for mRNA expression analysis. The expression was normalized to β-actin.

In test [2] the test system is differentiating iTreg cells. The test is described as follows: Intracellular metabolite profiling by LC/MS in differentiating iTreg cells. As to conditions: day 2.5, 0.5 mM AOA. On the procedure: CD4 naïve T cells, differentiating TH17 cells (day 2.5), and differentiating iTreg cells (day 2.5) were obtained as described above. A solution of 80/20 methanol (MeOH)/H2O was used to extract intracellular metabolites. The extracted samples were analyzed with liquid chromatography (LC)/mass spectrometry (MS) metabolomics. 200 ng/mL of extraction standard (L-Glutamic acid-^13C5-^15N-d5) was added into samples, and the peak value for each metabolite was normalized to extraction standard. The data was transformed into Log 2 and clustered. Cell extracts obtained as described above were analyzed for relative abundance of ^13C and ^15N metabolites by liquid chromatography-triple quadrupole mass spectrometry (LC-MS) using scheduled selective reaction monitoring (SRM) for each metabolite of interest, with the detector set to negative mode. Quantitation of intracellular 2-hydroxyglutarate (2HG) was conducted as described previously (Kernesky et al., Blood 2015, 125(2) 296-303).

Test [3] relates to FOXP3 mRNA in iTreg cells. The test is described as follows: mRNA expression analysis by qRT-PCR in iTreg cells. As to conditions: normalized to β-actin. On the procedure:
as §1
On the technique in general: Real-time PCR tracks product formation cycle by cycle.

Test [4] concerns differentiating TH17 cells. The test is described as follows: U-13C glutamine flux analysis in differentiating TH17 cells. As to conditions: 2 mM U-13C-glutamine for 4 hours. On the procedure: (§2) CD4 naïve T cells, differentiating TH17 or iTreg cells (68 hours) were incubated with fresh media prior to labeling. The cells were then cultured for 4 hours at 37° C. with medium where the glutamine was replaced with the corresponding stable isotope label: 2 mM U-^13C glutamine or 2 mM ^15N-α-glutamine for 4 hours at 37° C. The cells were quickly collected and quickly washed with phosphate buffer saline (PBS), pelleted, and snap frozen in liquid nitrogen. The frozen samples were kept in −80° C. until extraction. Cell extracts were prepared by first adding 80/20 MeOH/H2O at −60° C. to the frozen pellets and collecting the supernatant after centrifugation at 4° C. The extracted samples were analyzed by high-resolution liquid-chromatography-mass spectrometry. Unlabeled glutamine-fed cells were used as background. For negative mode metabolomics: Cell extracts obtained as described above were analyzed for relative abundance of metabolites by liquid chromatography-triple quadrupole mass spectrometry (LC-MS) using scheduled selective reaction monitoring (SRM) for each metabolite of interest, with the detector set to negative mode. Prior to injection, dried extracts were reconstituted in LC-MS grade water. LC separation was achieved by reverse-phase ion-pairing chromatography.

Test [5] deals with differentiating iTreg cells. Description: 15N-α-glutamine flux analysis (transamination) in differentiating iTreg cells. The procedure: CD4 naïve T cells, differentiating TH17 or iTreg cells (68 hours) were incubated with fresh media prior to labeling. The cells were then cultured for 4 hours at 37° C. with medium where the glutamine was replaced with the corresponding stable isotope label: 2 mM U-^13C glutamine or 2 mM ^15N-α-glutamine for 4 hours at 37° C. The cells were quickly collected and quickly washed with phosphate buffer saline (PBS), pelleted, and snap frozen in liquid nitrogen. The frozen samples were kept in −80° C. until extraction. Cell extracts were prepared by first adding 80/20 MeOH/H2O at −60° C. to the frozen pellets and collecting the supernatant after centrifugation at 4° C. The extracted samples were analyzed by high-resolution liquid-chromatography-mass spectrometry. Unlabeled glutamine-fed cells were used as background.
For amino acid profiling: The ultra-high pressure liquid chromatography (U-HPLC) system consisted of a Thermo Fisher Scientific (San Jose, USA) U-HPLC pumping system, coupled to an autosampler and degasser. Chromatographic separation of the intracellular metabolites was achieved by usage of a reversed phase Atlantis® T3 (3 μm, 2.1 mm ID×150 mm) column (Waters, Eschborn, Germany) and by implementation of a gradient elution program. […]

Test [6] has as its system differentiating iTreg cells. The test is described as follows: U-13C glutamine flux analysis in differentiating iTreg cells. As to conditions: 2 mM U-13C-glutamine for 4 hours. On the procedure: as §2

Consider `NOCC(=O)O` [AOA, (aminooxy)-acetic acid], for which the “FOXP3 mRNA expression” value in test [1] is reported as “promoted transcription of FOXP3”. Moreover, in test [1] (re-stimulated with anti-CD3 and anti-CD28 for 5 hours), the “Il17/Il17f mRNA level” value is listed as “selectively reduced the mRNA level of Il17/Il17f”. Besides, in test [2], the “abundance of TCA cycle intermediates (α-KG, succinate, fumarate, malate, citrate)” value is “reduced partially”; the level of glutamate result is “slightly higher”; the “reduction of steady-state levels of 2-HG” value is given as 50%. In addition, in test [3], the “FOXP3 mRNA expression” value is listed as “promoted transcription of FOXP3”. Also, the “de novo synthesis of α-KG and 2-HG (U-13C labeled, normalized to U-13C-glutamine)” value in test [4] is on record as “inhibited”. Also, the “reduction of total intracellular 15N-α-aspartate” value in test [5] (differentiating iTreg cells fed 2 mM 15N-α-glutamine for 4 hours) stood at 75%. Besides, the “de novo synthesis for several amino acids (15N label incorporation)” value in test [5] (differentiating iTreg cells, 2 mM 15N-α-glutamine for 4 hours) is “significant decreases”. Besides, in test [6], the “de novo synthesis of α-KG and 2-HG (U-13C labeled, normalized to U-13C-glutamine)” value is listed as “inhibited”.
